ChEMBL document CHEMBL4406843, “β-Amino acid derivatives as mitochondrial complex III inhibitors of L. donovani: A promising chemotype targeting visceral leishmaniasis” (Eur J Med Chem, 2019)
Active and inactive are the calls of the source. The rule behind the calls is not given here.

Assays:
Leishmania donovani [1] = experiment: (§1) Antileishmanial activity against Leishmania donovani promastigotes infected in BALB/c mouse assessed as inhibition in parasite burden in liver at 50 mg/kg, ip administered for 7 days starting at 15 days post-infection and measured after 1 week post last dose Giemsa staining-based assay relative to control; format: functional
Leishmania donovani [2] = experiment: Induction of plasma membrane permeabilization in Leishmania donovani promastigotes assessed as increase in fluorescence at 50 uM after 2 hrs by SYTOX green-based flow cytometry analysis relative to control; format: functional
[3] = Tmax in BALB/c mouse at 50 mg/kg, ip by HPLC analysis; format: ADME, organism-based; details: in vivo
[4] = Cytotoxicity against African green monkey Vero cells assessed as cell viability at 100 uM by MTT assay relative to control; format: cell-based; details: chlorocebus sabaeus, read-out: Activity
Leishmania donovani [5] = experiment: as §1, with “spleen” for “liver”; format: functional
Leishmania donovani [6] = experiment: as §1, with “200” for “50”; format: functional
Leishmania donovani [7] = experiment: Inhibition of […] in Leishmania donovani promastigotes mitochondria at 8.1 to 50 uM using decylubiquinol as substrate in presence of cytochrome c
Leishmania donovani [8] = experiment: Induction of mitochondrial membrane depolarization in Leishmania donovani promastigotes assessed as disruption of cristae at 50 uM after 24 hrs by TEM analysis; format: functional, organism-based
Leishmania donovani [9] = experiment: Antileishmanial activity against Leishmania donovani MHOM/IN/80/Dd8 amastigotes harboring luciferase reporter gene infected in mouse J774 cells at 50 uM after 72 hrs by Steady-Glo luminescence assay relative to control; format: functional; details: MHOM/IN/80/Dd8, J774, 72 h
Mus musculus = experiment: Immunostimulatory activity in BALB/c mouse infected with Leishmania donovani promastigotes assessed as induction of IL-2 cytokine production at 50 mg/kg administered for 5 days starting at 15 days post infection and measured after 3 to 7 weeks by ELISA; format: functional, organism-based
Leishmania donovani [10] = experiment: Induction of bio-energetic collapse in Leishmania donovani promastigotes assessed as reduction in ATP level at 50 uM after 48 hrs by bioluminescence based method relative to control; format: functional; parameters: scale not given: the % may be the effect or the level left
Leishmania donovani [11] = experiment: Induction of membrane depolarization in Leishmania donovani promastigotes assessed as increase in fluorescence at 50 uM by DiBAC4 dye based flow cytometry analysis relative to relative to 0.1% Triton X-100; format: functional
Leishmania donovani [12] = experiment: as §1, with “spleen” for “liver”, “100” for “50”; format: functional

Compound: CCOC(=O)C(C(=O)c1ccc(OC)cc1)C(NC(C)=O)c1cccc2ccccc12 (stereo not drawn)
- inhibition in vivo at 50 mg/kg (Leishmania donovani [1]): 91.5%
- Activity (Leishmania donovani [2]): 3.1%
- Tmax [3]: 15 min
- viability at 100 µM [4]: 95.5%
- inhibition in vivo at 50 mg/kg (Leishmania donovani [5]): 92.5%
- inhibition in vivo at 200 mg/kg (Leishmania donovani [6]): 92.1%
- inhibition (Leishmania donovani [7]): inactive
- Activity (Leishmania donovani [8]): Active
- inhibition at 50 µM (Leishmania donovani [9]): 93.5%
- Activity (Mus musculus): inactive
- Activity (Leishmania donovani [10]): >67%
- Activity (Leishmania donovani [11]): <=78.5%
- inhibition in vivo at 100 mg/kg (Leishmania donovani [12]): 92.8%
